Data from patent publication US20150238637A1, “Blood-brain Barrier Epitopes and Uses Thereof” (NATIONAL RESEARCH COUNCIL OF CANADA, priority 2005, published 2015).

Columns and labels:
HCEC monolayers = test: Transport across the in vitro blood brain barrier model; assay type: cell-based, human; settings: for effect on FC5 transport across the in vitro BBB model: 30 minutes preincubation
Description: HCEC (80,000 cells/membrane) were seeded on a 0.5% gelatin coated Falcon tissue culture inserts (pore size-1 μm; surface area 0.83 cm^2) in 1 ml of growth medium. The bottom chamber of the insert assembly contained 2 ml of growth medium supplemented with the fetal human astrocyte-conditioned medium in a 1:1 (v/v) ratio (Muruganandam et al., 1997).
Transport studies were performed 7 days post-seeding as described previously (Muruganandam et al., 1997; Muruganandam et al., 2002). Filter inserts were rinsed with transport buffer [phosphate buffered saline (PBS) containing 5 mM glucose, 5 mM MgCl2, 10 mM HEPES, 0.05% bovine serum albumin (BSA), pH 7.4] and allowed to equilibrate at 37° C. for 30 minutes. Experiments were initiated by adding 10 μg/ml FC5 to either apical or basolateral side of inserts containing either 0.5% gelatin-coated inserts without cells, control HCEC or HCEC pre-exposed to various pharmacological modulators for 30 min. Transport studies were conducted at 37° C. with plates positioned on a rotating platform stirring at 30-40 rpm. Aliquots (100 μl) were collected from the opposite chamber at various time intervals (5, 15, 30, 60, 90 minutes) and replaced with fresh buffer. The amount of FC5 transported across empty inserts or HCEC monolayers was determined by enzyme linked immunosorbent assay (ELISA) (see below). To control for HCEC membrane integrity and to estimate paracellular diffusion, the apical-to-basolateral and basolateral-to-apical clearance rates of [^14C]-sucrose were determined and calculated essentially as described previously (Muruganandam et al., 2002; Garberg et al., 2005) across the same monolayers used for FC5 transport studies. Sample-associated radioactivity in 50 μl aliquots was measured using a Mircobeta Trilux liquid scintillation counter (Wallac, Finland).
Clearance was calculated as Cl (ml)=CA/CI×VA, where CI is the initial tracer or sdAb concentration in the donor chamber, CA is the tracer or sdAb concentration in the accepter chamber, and VA is the volume of the acceptor chamber. […] The effects of pharmacological agents on FC5 transmigration was subsequently assessed at 30 min.
To measure the amount of FC5 transmigrated across the in vitro BBB model, 50 μl aliquots collected from the appropriate compartment were immobilized overnight at room temperature in a HisGrab nickel coated 96-well plate (Pierce). After blocking the plates with 2% BSA for 2 hours at room temperature, anti-c-Myc monoclonal antibody conjugated to HRP was added at a dilution of 1:5000 for 1 hour. After washing, the bound FC5 was detected with tetramethylbenzidine (TMB)/hydrogen peroxide substrate system. The signal was measured at […] on a microtiter plate reader. FC5 concentrations in collected aliquots were determined from a standard curve constructed using known FC5 concentrations.

HCEC = test: Uptake into human cerebromicrovascular endothelial cells (immunofluorescence); assay type: cell-based; settings: data not shown; for effect on FC5 uptake into HCEC: 30 minutes preincubation
Description: The uptake of FC5 into HCEC was tested 15-90 minutes after adding 5 μg/ml of FC5 in the absence or presence of various pharmacological modulators of endocytosis. To visualize the intracellular distribution of FC5, cells were fixed, permeabilized and probed with the anti-c-myc antibody (1:100; 1 hour) followed by incubation with FITC-labeled anti-mouse IgG (1:250; 1 hour).

[1] = 5 μg/ml, 30 minutes pretreatment

CN(C)CCCn1cc(C2=C(c3c[nH]c4ccccc34)C(=O)NC2=O)c2ccccc21 [BIM-1, bisindolyl-maleimide-1]
reduction of FC5 transcytosis across HCEC (HCEC monolayers; BIM-1 5 μM, 30 minutes pre-incubation): 25%

poly-L-lysine
effect on FC5 uptake into HCEC (HCEC; poly-L-lysine 300 μM): Neither compound affected | effect on FC5 transport across the in vitro BBB model (HCEC monolayers; poly-L-lysine 300 μM): Neither compound affected

holo-transferrin
effect on FC5 uptake (HCEC; 100-fold excess of holo-transferrin): not reduced | effect on FC5 transendothelial transport (HCEC monolayers; 100-fold excess (1 mg/ml) of holo-transferrin, 10 μg/ml FC5, 30 minutes): not reduced

CCCC(=O)Nc1ncnc2c1ncn2[C@@H]1O[C@@H]2COP(=O)(O)O[C@H]2[C@H]1OC(=O)CCC [db-cAMP, dibutyryl-cAMP]
effect on FC5 transcytosis across HCEC (HCEC monolayers; db-cAMP 500 μM, 30 minutes pre-incubation): not affected

COC(=O)Nc1nc2ccc(C(=O)c3cccs3)cc2[nH]1 [nocodazole]
effect on FC5 transcytosis (HCEC monolayers; 20 μM, 30 minutes pre-incubation): did not interfere

O=CC[C@@H](O)[C@H](O)[C@H](O)CO [2-deoxyglucose]
effect on FC5 transmigration (HCEC monolayers; 5 mM sodium azide and 5 mM 2-deoxyglucose together, 30 min, glucose-free medium): near-complete inhibition

protamine sulfate
effect on FC5 uptake into HCEC (HCEC; protamine sulfate 40 μg/ml): Neither compound affected | effect on FC5 transport across the in vitro BBB model (HCEC monolayers; protamine sulfate 40 μg/ml): Neither compound affected

N=C(N)NC(=O)c1nc(Cl)c(N)nc1N [amiloride]
effect on transendothelial migration of FC5 (HCEC monolayers; amiloride 500 μM): no effect

chondroitin sulfate A
effect on FC5 transcytosis across the BBB in vitro (HCEC monolayers; 10 μg/ml pre-incubation): did not affect

methyl-β-cyclodextrin
effect on FC5 transmigration across in vitro BBB model (HCEC monolayers; methyl-β-cyclodextrin 5 mM, 30 minutes pretreatment): None of the caveolae-mediated endocytosis inhibitors tested affected

CCCCC[C@@H](O)[C@H]1C(=O)O[C@H](C)[C@@H](O)/C=C/C=C/C=C/C=C/C=C(\C)[C@@H](O)C[C@H](O)C[C@H](O)C[C@H](O)C[C@H](O)C[C@H](O)C[C@@H]1O [filipin]
effect on FC5 transmigration across in vitro BBB model (HCEC monolayers; [1]): None of the caveolae-mediated endocytosis inhibitors tested affected

chondroitin sulfate C
effect on FC5 transcytosis across the BBB in vitro (HCEC monolayers; 10 μg/ml pre-incubation): did not affect

heparin sulfate
effect on FC5 transcytosis across the BBB in vitro (HCEC monolayers; heparin sulfate 50 U/ml pre-incubation): did not affect

CN(C)CCCN1c2ccccc2Sc2ccc(Cl)cc21 [chlorpromazine]
inhibition at 50 µg/mL (HCEC monolayers; Homo sapiens, HCEC, chlorpromazine 50 μg/ml, 30 minutes pretreatment, read-out: inhibition of FC5 transmigration across in vitro BBB model): 52%

C[C@@H]1O[C@@H](O[C@H]2C[C@@H](O)[C@]3(CO)[C@H]4[C@H](O)C[C@]5(C)[C@@H](C6=CC(=O)OC6)CC[C@]5(O)[C@@H]4CC[C@]3(O)C2)[C@H](O)[C@H](O)[C@H]1O [ouabain]
reduction of FC5 transport across HCEC (HCEC monolayers; ouabain 1 μM, 30 minutes pretreatment): 40%

mannan
effect on FC5 transmigration (HCEC monolayers; mannan 1 mg/ml): did not affect

O=c1c(-c2ccc(O)cc2)coc2cc(O)cc(O)c12 [genistein]
effect on FC5 transcytosis across HCEC (HCEC monolayers; genistein 50 μM, 30 minutes pre-incubation): not affected

CC[C@@]1([C@@H]2O[C@@H]([C@H]3O[C@@](O)(CO)[C@H](C)C[C@@H]3C)C[C@@H]2C)CC[C@H]([C@]2(C)CC[C@]3(C[C@H](O)[C@@H](C)[C@@H]([C@@H](C)[C@@H](OC)[C@H](C)C(=O)O)O3)O2)O1 [Monensin, monensin]
inhibition at 25 µM (HCEC monolayers; Homo sapiens, HCEC, 0.5 h, monensin 25 μM, 30 minutes, 10 μg/ml FC5, read-out: inhibition of FC5 transcytosis across HCEC): 34%

C[C@@H]1[C@H](O)[C@@H](C)/C=C/C=C/CC/C=C/C=C/C=C/C=C/C(O[C@H]2O[C@H](C)[C@@H](O)[C@H](N)[C@@H]2O)CC2O[C@](O)(CC(O)C(O)CCC(O)CC(O)CC(O)CC(=O)O[C@H]1C)CC(O)C2C(=O)O (stereo partly shown) [nystatin]
effect on FC5 transmigration across in vitro BBB model (HCEC monolayers; [1]): None of the caveolae-mediated endocytosis inhibitors tested affected
